“Also recorded” adds a separate entry of the source.
Columns and labels:
[1] = test system: Abeta oligomer-induced acceleration of exocytosis in primary neurons; experiment: Exocytosis assay/MTT assay (Example AA); assay type: cell-based, rat; settings: Primary neuron
Experimental: Primary neurons from E18 Sprague-Dawley rat embryos are plated at optimized concentrations in 384 well plates in NB media (Invitrogen). Neurons are maintained in cultures for 3 weeks, with twice weekly feeding of NB media with N2 supplement (Invitrogen). A test compound is added to cells, followed by addition of Vehicle or Abeta oligomer preparations (1.5 μM), and incubated for 1 to 24 hr at 37° C. in 5% CO2. MTT reagent (3-(4,5-dimethylthizaol-2yl)-2,5diphenyl tetrazolium bromide) (Roche Molecular Biochemicals) is reconstituted in phosphate buffered saline to 5 mg/mL. 10 μL of MTT labeling reagent is added to each well and incubated at 37° C. for 1 h, then imaged.
Each assay plate is formatted so that compounds are tested with and without Abeta on each plate. […] Statistical performance of the screening plate layout are assessed, screening will be initiated if the current performance is maintained. […]
Optimal cell density is determined based on cellular response to Abeta oligomers using the exocytosis assay as a readout, and immunohistochemical analysis of the relative proportion of glia to neurons in the cultures. Cultures are monitored on a weekly basis with immunohistochemistry and image processing-based quantification to monitor the percentage of the cultures that are neurons vs. glia (Glial cells). […]

Abeta 1-42 Oligomers = biological target: T1, Abeta 1-42 Oligomers (Homo sapiens, UniProt P05067); experiment: Binding assay (Example BB): Abeta oligomer binding to neurons, image processing; settings: imaging processing algorithm
T1 construct: Human amyloid peptide 1-42 is obtained from California Peptide; purchased California Peptide
T1 sequence (P05067 672-713): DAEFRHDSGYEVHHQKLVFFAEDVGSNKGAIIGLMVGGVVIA
Experimental: Each test compound was added to a plate followed by an addition of one or more of Abeta 1-42 Oligomers. The plates were fixed with 3.7% paraformaldehyde in phosphate buffered saline (PBS) for 15 min. The plate was then washed 3× with PBS for 5 min each. The plates were blocked at room temperature for 1 hour in 5% goat serum and 0.5% Triton X-100 (CAS number: 9002-93-1) in PBS. Primary antibodies (anti-MAP 2 polyclonal, Millipore #AB5622 and anti-Beta Amyloid 6E10 monoclonal, Convance #SIG-39300) were diluted 1:1000 in 5% goat serum with PBS. Primary antibodies were incubated either overnight at 4° C. or 1 hour at RT. The plate was then washed 3× with PBS for 5 min each. Secondary antibodies (Alex Flor 488 polyclonal, Invitrogen #A11008 and Alexa Flor 647 monoclonal, Invitrogen #A21235) were diluted 1:1000 in 5% goat serum with PBS. Secondary antibodies were incubated at RT for 1 hr. The plates were washed once with PBS. […]
Human amyloid peptide 1-42 is obtained from California Peptide, with lot-choice contingent upon quality control analysis. […] Toxicity is monitored in each image-based assay via quantification of nuclear morphology visualized with the DNA binding dye DAPI (Invitrogen). […]
Images were captured and analyzed with the Cellomics VTI automated microscope platform, using the Neuronal Profiling algorithm. […]

[2] = Pharmacokinetic studies (Example CC), plasma; assay type: in vivo; settings: rat, iv, rats, injected intravenously at 1 mg/Kg
Experimental: PK studies are performed at CEREP Inc of Redmond Wash., according to their standard protocols: The plasma samples were processed using acetonitrile precipitation and analyzed by HPLC-MS or HPLC-MS/MS. Peak areas were recorded, and the concentrations of the test compound in the unknown plasma samples were determined using the respective calibration curve. The reportable linear range of the assay was determined, along with the lower limit of quantitation (LLQ).
Pharmacokinetic studies were performed according to the following protocols: The plasma samples were processed using acetonitrile precipitation and analyzed by HPLC-MS or HPLC-MS/MS. Peak areas were recorded, and the concentrations of the test compound in the unknown plasma samples were determined using the respective calibration curve. The reportable linear range of the assay was determined, along with the lower limit of quantitation (LLQ).

[3] = test system: Abeta oligomer effects on membrane trafficking in mature primary neurons; experiment: Primary neuron-based functional screening assay (membrane trafficking/exocytosis, Example DD); assay type: cell-based, rat; settings: for activity in blocking the effects of Abeta oligomers on membrane trafficking: compound added to neurons before oligomers
Description: Primary rat neurons grown for at least 3 weeks in vitro were chosen as the basis for this screening assay. […] More complex systems such as acute or organotypic brain slices are very useful but not amenable to high throughput screening. […] For this reason, primary neuronal cultures were chosen because of their ability to be used in high throughput screens and fidelity to what occurs in vivo.
(Scale bar=20 microns in FIG. 1A). […] (FIG. 1B).
The MTT assay can be used as a measure of toxicity in cultures. Yellow tetrazolium salts were endocytosed by cells and reduced to insoluble purple formazan in the endosomal pathway. The level of purple formazan was a reflection of the number of actively metabolizing cells in culture, and reduction in the amount of formazan was taken as a measure of cell death or metabolic toxicity in culture.
The exocytosis assay was adapted for use with mature primary neuronal cultures grown for 3 weeks in vitro.
Compounds were added to neurons first, then oligomers were added.
Data were the average of 3 experiments. Scale bar=20 micron in FIG. 2D.

[4] = test system: Abeta assemblies isolated from AD patients or normal individuals; experiment: Membrane trafficking assay with patient-derived Abeta assemblies (Example FF); assay type: cell-based; settings: FIG. 4
Experimental: Abeta assemblies were isolated from patients with Alzheimer's Disease (AD) or from normal patients. The Abeta assemblies were tested for their ability to modulate membrane trafficking. […] (FIG. 4). […] Compound Example 2 has no effect on Abeta assemblies isolated from Age-matched normal individuals. (FIG. 4). […] (FIG. 4).

[5] = test system: Abeta oligomer-mediated memory deficits; experiment: Fear conditioning assay (Example EE); assay type: in vivo, mice
Experimental: Compound Example 2 was tested in an animal model of a memory-dependent behavioral task known as fear conditioning. The study protocol was designed based on published protocols (See e.g. Puzzo D, Privitera L, Leznik E, Fà M, Staniszewski A, Palmeri A, Arancio O. Picomolar amyloid-beta positively modulates synaptic plasticity and memory in hippocampus. J Neurosci. 2008 Dec. 31; 28(53)14537-45.). The formation of contextual memories is dependent upon the integrity of medial temporal lobe structures such as the hippocampus. In this assay mice were trained to remember that a particular salient context (conditioned stimulus; CS) is associated with an aversive event, in this case a mild foot shock (the unconditioned stimulus, US). Animals that show good learning will express an increase in freezing behavior when placed back into the same context. This freezing is absent in a novel context. Increased freezing in the context indicates strong hippocampal-dependent memory formation in animals. Memory tested in Fear Conditioning is sensitive to elevations of soluble Aβ. […] The fear condition model for memory was performed as described herein.

CC12CC3CC(C)(C1)CC(N)(C3)C2 [Memantine, memantine, reference compound]
inhibition at 28 µM ([1]; Rattus norvegicus, 28 μM memantine, control on each plate, read-out: inhibition of oligomer effects): 50%

COc1cc(CCC(C)NCc2ccc(Cl)cc2)ccc1O (stereo not drawn) [Compound Example 1, 4-(3-(4-chlorobenzylamino)butyl)-2-methoxyphenol]
EC50 ([1]; MTT assay, primary rat neurons, Abeta oligomers 1.5 μM, read-out: EC50 for block of Abeta oligomer-induced acceleration of exocytosis): 10 µM
partial block of binding of the Abeta oligomer ligand to neurons (Abeta 1-42 Oligomers): 24%
half-life [2]: 46 min

C[C@]12N[C@H](Cc3ccccc31)c1ccccc12 [MK-801, reference compound]
activity in blocking the effects of Abeta oligomers on membrane trafficking [3]: none were active

COc1cc(CCC(C)NCc2ccc(C(F)(F)F)cc2)ccc1O (stereo not drawn) [Compound Example 2, 4-(3-(4-(trifluoromethyl)benzylamino)butyl)-2-methoxyphenol]
effect on trafficking effects of AD-brain derived Abeta assemblies ([4]; IMW (10-100 KDa) assemblies from AD patients): significantly blocked
effect on Abeta assemblies isolated from Age-matched normal individuals ([4]; IMW assemblies from normal individuals): no effect
effect on Abeta oligomer-mediated memory deficits ([5]; 2 pmol dose, given prior to Abeta (200 nM), contextual fear conditioning, FIG. 3 bar d): completely blocked
block of oligomer effects on memory across doses ([5]; administered prior to Abeta oligomer administration): blocked oligomer effects on memory in a dose-dependent manner
adverse behavioral changes ([5]; any dose): No adverse behavioral changes were observed
effect of compound alone on memory ([5]; no Abeta, data not shown): No effect
EC50 ([3]; Rattus norvegicus, Primary neuron, 504 h, FIG. 2B, primary neurons 3 weeks in vitro, read-out: EC50 for inhibition of oligomer effects on membrane trafficking): 7 µM
activity in blocking the effects of Abeta oligomers on membrane trafficking [3]: inhibits oligomer effects on membrane trafficking; also recorded: effective

O[C@H]1[C@H](O)[C@@H](O)[C@H](O)[C@@H](O)[C@@H]1O [scyllo-inositol, reference compound]
activity in blocking the effects of Abeta oligomers on membrane trafficking [3]: none were active

C[N+](C)(C)CCCCCC[N+](C)(C)C [hexamethonium bromide, reference compound]
activity in blocking the effects of Abeta oligomers on membrane trafficking [3]: none were active

Reference: US9365491B2, “Inhibitors of cognitive decline” (COGNITION THERAPEUTICS, INC., priority 2009, dated 2016)
